Here are results for one compound from PubChem BioAssay AID602177 (NMMLSC, 2012).

Structures are written as SMILES. Calls of active or inactive are those of the source. The rule behind the calls is not given here.

For the experiment, the target named is Botulinum neurotoxin type F (Clostridium botulinum) (UniProt P30996). The experiment in a line: concentration-response inhibition of BoNT/F LC – biochemical, cherry pick 1 compounds, dose response (AID 602177). The note with it: multiplex microsphere protease cleavage assay.

By EC50 is commonly meant the midpoint of the concentration-response curve. On to `Oc1[nH]c(N=C2N=c3ccccc3=N2)c2ccccc12`, for which the EC50 is > 20 µM (inactive).
